Measurements from US7488712B2, “Histone deacetylase inhibitors and methods for producing the same” (Kyushu Institute of Technology, priority 2002, dated 2009).
Where two headings read alike, the source gives them in different places.

Columns and labels:
[1] = in vitro; settings: human, Cancer-Cell-Selective Cytotoxicity, LD50 for normal cells/LD50 for cancer cells (TIG-3/HeLa)
Description: Human normal lung cells (TIG-3) and human uterine cancer cells (HeLa) were used to test SCOP cytotoxicity. These TIG-3 and HeLa cells were cultured in a DMEM medium comprising 10% FBS at 37° C. in the presence of 5% carbon dioxide in a steam-saturated incubator. The TIG-3 and HeLa cells were plated in 100 μl/well of the above-described medium on a 96-well microtiter plate, at a density of 30,000 cells/well and 10,000 cells/well respectively. This was then cultured for 18 hours. Test compound solution diluted with medium was added to each well and culture was continued for another 48 hours.
30 μl of supernatant from each well was transferred to another 96-well microtiter plate (A), and the remaining supernatant was discarded. 100 μl of 0.5% Triton-X/PBS was added to each well to lyse the cells, and 30 μl was then transferred to each respective well of another 96-well microtiter plate (B). 30 μl of LDH-Cytotoxic Test (Wako) substrate solution was added to each well of these 96-well microtiter plates A and B, causing a color reaction. Once the color reaction was sufficiently progressed, it was stopped by adding 60 μl of a quenching solution. Color intensity was measured at OD560 nm using a microplate reader (Softmax). [A/(A+B)] was calculated as the free-LDH ratio. […] The higher the activity value for cancer-cell-selective cell damage (LD50 for normal cells/LD50 for cancer cells), the more that cancer-cell-selective apoptosis was induced.

[2] = target: T1, human HDAC4 (Homo sapiens, UniProt P56524); test: In vitro HDAC inhibition activity, [3H]-acetylated histone substrate, HDAC4; type: biochemical; settings: Table 3
T1 construct: FLAG; made in house; host or cells: 293T cells (transient transfection, anti-FLAG immunoprecipitation, FLAG peptide elution)
T1 sequence (O15379 whole entry partner): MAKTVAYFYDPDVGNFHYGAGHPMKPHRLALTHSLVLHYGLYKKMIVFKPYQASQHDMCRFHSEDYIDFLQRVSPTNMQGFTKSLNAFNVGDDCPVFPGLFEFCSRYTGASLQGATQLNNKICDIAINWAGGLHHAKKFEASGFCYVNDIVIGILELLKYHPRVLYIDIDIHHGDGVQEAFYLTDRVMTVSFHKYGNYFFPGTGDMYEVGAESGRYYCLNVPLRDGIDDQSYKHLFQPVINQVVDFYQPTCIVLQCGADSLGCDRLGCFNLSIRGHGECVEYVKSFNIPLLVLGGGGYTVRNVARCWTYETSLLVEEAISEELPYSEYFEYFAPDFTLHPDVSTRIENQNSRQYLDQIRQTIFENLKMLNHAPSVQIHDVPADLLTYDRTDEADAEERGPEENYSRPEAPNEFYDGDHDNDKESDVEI
T1 sequence (P56524 whole entry): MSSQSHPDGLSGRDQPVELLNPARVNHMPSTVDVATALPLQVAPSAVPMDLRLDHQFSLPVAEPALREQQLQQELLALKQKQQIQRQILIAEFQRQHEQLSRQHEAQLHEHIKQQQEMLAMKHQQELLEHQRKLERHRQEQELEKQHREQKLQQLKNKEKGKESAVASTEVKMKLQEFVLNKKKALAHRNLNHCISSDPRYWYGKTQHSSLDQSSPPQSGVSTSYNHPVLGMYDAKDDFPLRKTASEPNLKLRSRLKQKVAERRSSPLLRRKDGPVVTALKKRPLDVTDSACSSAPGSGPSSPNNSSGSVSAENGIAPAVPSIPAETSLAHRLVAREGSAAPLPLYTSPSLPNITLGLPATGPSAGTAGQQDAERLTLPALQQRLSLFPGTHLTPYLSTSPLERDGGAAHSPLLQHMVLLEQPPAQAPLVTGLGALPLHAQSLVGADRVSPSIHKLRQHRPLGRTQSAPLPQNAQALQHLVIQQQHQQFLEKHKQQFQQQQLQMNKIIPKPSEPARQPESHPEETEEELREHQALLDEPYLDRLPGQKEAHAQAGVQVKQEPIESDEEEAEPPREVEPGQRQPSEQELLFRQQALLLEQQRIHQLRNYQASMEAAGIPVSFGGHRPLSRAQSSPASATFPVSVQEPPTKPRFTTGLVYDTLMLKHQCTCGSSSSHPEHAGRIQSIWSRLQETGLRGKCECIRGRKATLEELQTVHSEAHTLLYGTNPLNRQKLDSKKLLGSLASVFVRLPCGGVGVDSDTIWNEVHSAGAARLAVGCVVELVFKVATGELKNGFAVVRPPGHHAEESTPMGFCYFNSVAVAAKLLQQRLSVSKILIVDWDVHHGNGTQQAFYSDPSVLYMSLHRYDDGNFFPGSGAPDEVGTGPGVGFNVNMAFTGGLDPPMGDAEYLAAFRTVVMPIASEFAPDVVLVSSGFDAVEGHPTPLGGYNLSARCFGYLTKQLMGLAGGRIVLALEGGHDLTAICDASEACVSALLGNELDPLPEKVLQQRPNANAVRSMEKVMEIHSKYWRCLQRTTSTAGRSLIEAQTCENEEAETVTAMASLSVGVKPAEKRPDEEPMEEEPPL

[3] = Cytotoxicity test (free-LDH ratio), TIG-3; type: cell-based; settings: human, TIG-3 human normal lung cells, 48 hours, free-LDH ratio 50%, read-out: LD50 (nM) TIG-3
Description: This was then cultured for 18 hours.

[4] = target: T2, human HDAC1 (Homo sapiens, UniProt Q13547); test: In vitro HDAC inhibition activity, [3H]-acetylated histone substrate, HDAC1; type: biochemical; settings: Table 3
T2 construct: FLAG; made in house; host or cells: 293T cells (transient transfection, anti-FLAG immunoprecipitation, FLAG peptide elution)
T2 sequence (Q13547 whole entry): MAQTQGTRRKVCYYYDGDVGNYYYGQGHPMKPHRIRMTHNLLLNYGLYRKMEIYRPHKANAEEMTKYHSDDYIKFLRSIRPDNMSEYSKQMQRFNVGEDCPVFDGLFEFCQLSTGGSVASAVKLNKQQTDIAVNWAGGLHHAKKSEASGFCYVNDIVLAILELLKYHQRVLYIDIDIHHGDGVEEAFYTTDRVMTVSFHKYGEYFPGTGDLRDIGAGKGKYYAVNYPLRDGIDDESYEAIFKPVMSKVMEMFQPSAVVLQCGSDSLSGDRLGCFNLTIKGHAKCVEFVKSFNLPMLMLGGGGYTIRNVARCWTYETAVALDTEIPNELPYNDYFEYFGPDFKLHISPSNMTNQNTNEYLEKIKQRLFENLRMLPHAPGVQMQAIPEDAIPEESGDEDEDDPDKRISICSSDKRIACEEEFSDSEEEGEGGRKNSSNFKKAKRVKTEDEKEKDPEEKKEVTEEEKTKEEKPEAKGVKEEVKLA

Compound: CC[C@H](C)[C@@H]1NC(=O)[C@@H](Cc2ccc(OC)cc2)NC(=O)[C@H](CCCCCSSc2ccncc2)NC(=O)[C@H]2CCCN2C1=O [SCOP 402, cyclo(-L-Am7(S4Py)-D-Tyr(Me)-L-Ile-D-Pro-)]
- selectivity ratio at 48 h ([1]; with DTT (/DTT)): 27.8
- selectivity ratio at 48 h ([1]; without DTT): 11.4
- IC50 ([2]; hybrid with DTT (/DTT)): 1.12 nM
- IC50 ([2]; hybrid, without DTT): 68.3 nM
- CC50 at 48 h ([3]; with DTT (/DTT)): 4460 nM
- CC50 at 48 h ([3]; without DTT): 13300 nM
- IC50 ([4]; hybrid with DTT (/DTT)): 0.553 nM
- IC50 ([4]; hybrid, without DTT): 6.76 nM
